Among the data in a melting point compilation (Tetko et al.; mined from patent text by program, amines drawn as free bases though some values may be those of a salt) are melting point values, retold here.

Usually melting point stands for the temperature of the solid-liquid transition. `COc1ccc(C2C(=O)NC(C)(C(C)C)C2=O)c(Cl)c1` (stereo unspecified): the melting point lay within 130 to 140 °C.

Turning to `Cc1oc2cc(CO)ccc2c1C`, the melting point was in the range of 78 to 79 °C.

Consider `Cc1cc2c(cc1C)N=C(c1ccc(-n3c(C)nc4cnccc43)cc1)CC(N)=N2`, for which the melting point lay in the range of 299 to 302 °C.

As for `COc1ccc2c(c1)S(=O)(=O)c1nccnc1N2`, the melting point was 293 to 294 °C.

In turn, `Cc1[nH]cnc1CSCCNc1ncc(Cc2ccccc2)cc1C#N` yielded a melting point of 105 to 106 °C.

`CCCCCCCCCCN(CCC12CC3CC(CC(C3)C1)C2)C(=O)NCCCc1ccncc1` showed a melting point of 75 to 76 °C.

`CCNC(=O)c1nc2cc(NC(=O)c3c(C(=O)N4CCC4)cnn3C)ccn2n1` showed a melting point of 217 to 229 °C.

As to `O=Cc1scc2c1-c1cccc3cccc-2c13`, the melting point was 123 to 126 °C.

`CCC(=O)C(CCCCCCCCc1ccc(O)cc1)C(=O)CC` displayed a melting point of 164 to 165 °C.

Take `O=c1oc2ccccc2n1-c1ccccc1[N+](=O)[O-]`: the melting point was 153 to 155 °C.

For `FC(F)C(F)(F)Sc1nc2c3ccccc3c3ccccc3c2[nH]1`, the melting point lay within 230 to 231 °C.

`Nc1cc(-n2c(=O)n(-c3ccccc3)c3ccccc32)ccn1` registered a melting point of 184 to 185 °C.

Turning to `O=C(NCCSCc1cccc(I)c1)c1c(Cl)cccc1Cl`, the melting point was in the range of 75 to 78 °C.

On to `CCCc1nc(S(C)(=O)=O)c(C(=O)O)n1Cc1ccc(-c2ccccc2S(=O)(=O)NC(=O)NCC)cc1`, for which the melting point is 131 °C.

Take `Cc1nc(N2CCNCC2)nc(N2CCS(=O)(=O)CC2)c1[N+](=O)[O-]`: the melting point is 208 to 211 °C.

In the case of `CCN(CC)C(=O)c1cc(-c2ccccc2)ccc1-c1ccc(OC)cc1`, the melting point was in the range of 139 to 141 °C.

In turn, `COc1cc2ncc(C#N)c(Nc3ccccc3C)c2cc1OC` gave a melting point of 137 to 141 °C.

For `CCCCOC1c2ccccc2C(=O)N(CC2CC2)C1(/C=C/C(=O)O)CNC(=O)OC(C)(C)C` (stereo unspecified), the melting point lay within 229 to 230 °C.

`CCOC(=O)c1[nH]c(CC)c(C)c1CC(C)C`: the melting point was in the range of 53 to 55 °C.

Compound `COc1cc2ncc(C#N)c(Nc3ccc(C)c(O)c3)c2cc1OC` had a melting point of 222 to 224 °C.

For `COC(=O)CCCc1cc2cc(C(F)(F)F)ccc2n1S(=O)(=O)c1ccc2nc(C)sc2c1`, the melting point lay within 163 to 168 °C.

In the case of `COC(=O)c1cc2cc(NC(=O)c3cc4cc(N)ccc4[nH]3)ccc2[nH]1`, the melting point is above 350 °C.

Compound `COC1=C(OC)C(=O)C2=C(CCC(CCOc3ccc(F)cc3)CC2)C1=O` yielded a melting point of 91 to 93 °C.

Take `COC(=O)C1(C)CC(C(=O)Nc2ccc(I)cc2)=NN1c1ccc(F)cc1` (stereo unspecified): the melting point was 84 to 85 °C.

On to `CC(=O)C1=CCC2C3CCC4CC(O)CCC4(C)C3CCC12C` (stereo unspecified), for which the melting point lay in the range of 186 to 188 °C.

In the case of `O=C(N1CCCCCC1)N1CC(Oc2cccc(C(F)(F)F)c2)C1`, the melting point was in the range of 64.5 to 66 °C.

The compound `COc1cc(Cc2cnc(NC(C)=Nc3ccccc3)nc2N)cc(OC)c1OC` gave a melting point of 189 °C.

Take `COc1ccc(NC(=O)c2ccncc2)c2c1oc1ccccc12`: the melting point amounted to 221 °C.

On to `O=C(CCc1cccc(C(F)(F)F)c1)NNC(=O)c1ccc2[nH]ncc2c1`, for which the melting point was in the range of 227 to 228 °C.

Take `COC(=O)C=Cc1ccc(CO)cc1`: the melting point lay in the range of 86 to 87 °C.

Regarding `Fc1c(F)c(-c2c(F)c(F)c(Oc3cccc4ccccc34)c(F)c2F)c(F)c(F)c1Oc1cccc2ccccc12`, the melting point was in the range of 189 to 191 °C.

The compound `CCCC(=O)C(=CNc1ccc(CO)cc1)C(=O)OCC` had a melting point of 44 to 46 °C.

On to `COc1cccc2c(=O)cc(-c3ccccc3SCc3ccccc3)[nH]c12`, for which the melting point lay in the range of 139 to 140 °C.

With `O=c1cc(N2CCOCC2)oc2c(O)cccc12`, the melting point lay within 240 to 247 °C.

The compound `c1ccc2c(c1)CCN(Cc1cc3ccccc3[nH]1)C2` came in with a melting point of 129 to 131 °C.

In the case of `CCOC(=O)c1ccc(OCc2nc(C)c(C)nc2C)cc1`, the melting point lay within 75 to 75.7 °C.
